Legend:
[1] = parameters: method as in PMID 34326129; conditions: cited from earlier work
prostate cancer lesions = assay: [^68Ga]Ga-PSMA-11 PET/CT findings in the same patients; format: in vivo, human (patients); conditions: for SUVmax of undetermined finding: 1 h p.i.
Method: The time interval between both, [^89Zr]Zr-PSMA-617 and [^68Ga]Ga-PSMA-11 PET/CT, was 31 ± 18 days (range 5–49 days), with no treatment performed in between. Prostate-specific antigen (PSA) serum level at time of imaging ranged from 0.43 to 1.92 ng/ml. All patients were initially treated with radical prostatectomy (RP). Initial Gleason score ranged from 7a to 9. Four patients underwent salvage treatments such as androgen-deprivation therapy (ADT), lymphadenectomy (LA) or radiation therapy (RT). Detailed patient characteristics including age, Gleason score, primary therapy, salvage therapies, time from initial diagnosis (ID) of prostate cancer, PSA and PSA doubling time (DT) are presented in Table 1. [^89Zr]Zr-PSMA-617 PET/CT imaging was performed on a compassionate use basis under the German Pharmaceutical Act §13 (2b). The medical indication for the examination and the labeling of the tracer were under the direct responsibility of the applying physician. Patients gave their written consent after being thoroughly informed about the general risks of both radiation exposure and application of a novel PET tracer including possible adverse effects of, e.g., therapeutic PSMA tracers. Furthermore, all patients agreed to the publication of the resulting data in accordance with the Declaration of Helsinki.

| SUVmax of undetermined finding (prostate cancer lesions; patient no. 2, pelvic tracer uptake, considered as unspecific uptake) | SUVmax of undetermined finding (prostate cancer lesions; patient no. 4, faint uptake in peritoneal lesion) | Molecule | Effective dose [1] [mSv/MBq] | Findings on [^68Ga]Ga-PSMA-11 PET/CT (prostate cancer lesions; Pt. no 1, PSA 1.92 ng/ml) | Findings on [^68Ga]Ga-PSMA-11 PET/CT (prostate cancer lesions; Pt. no 2, PSA 1.75 ng/ml) | Findings on [^68Ga]Ga-PSMA-11 PET/CT (prostate cancer lesions; Pt. no 3, PSA 0.66 ng/ml) | Findings on [^68Ga]Ga-PSMA-11 PET/CT (prostate cancer lesions; Pt. no 4, PSA 1.77 ng/ml) | Findings on [^68Ga]Ga-PSMA-11 PET/CT (prostate cancer lesions; Pt. no 5, PSA 0.63 ng/ml) | Findings on [^68Ga]Ga-PSMA-11 PET/CT (prostate cancer lesions; Pt. no 6, PSA 0.43 ng/ml) | Findings on [^68Ga]Ga-PSMA-11 PET/CT (prostate cancer lesions; Pt. no 7, PSA 0.68 ng/ml) |
| --- | --- | --- | --- | --- | --- | --- | --- | --- | --- | --- |
| – | – | [^89Zr]Zr-PSMA-DFO | 0.15 ± 0.04 | – | – | – | – | – | – | – |
| 4.47 | 2.06 | O=C([O-])CN(CCN(CC(=O)[O-])Cc1cc(CCC(=O)NCCCCCC(=O)NCCCC[C@H](NC(=O)N[C@@H](CCC(=O)O)C(=O)O)C(=O)O)ccc1[O-])Cc1cc(CCC(=O)O)ccc1[O-].[68Ga+3].[OH3+] [[^68Ga]Ga-PSMA-11] | – | No suspicious findings | 1 × LNM + undetermined finding (suspicion of right iliac LNM) | No suspicious findings | Undetermined finding (suspicion of peritoneal metastasis) | No suspicious findings | Undetermined finding (suspicion of local recurrence in seminal vesicle bed) | No suspicious findings |

From article PMC9606102, “[^89Zr]Zr-PSMA-617 PET/CT in biochemical recurrence of prostate cancer: first clinical experience from a pilot study including biodistribution and dose estimates” (European Journal of Nuclear Medicine and Molecular Imaging, 2022)
